Experimental data reported in paper PMC9115112, “A2B adenosine receptor antagonists rescue lymphocyte activity in adenosine-producing patient-derived cancer models” (Journal for Immunotherapy of Cancer, 2022).

Key:
healthy donor PBMCs = assay: Cell viability of healthy donor PBMCs on antagonist treatment (data not shown); assay type: cell-based, human
Method: Supplementary methods and results
Annexin V viability analysis
Cells were washed with Annexin V binding buffer (BioLegend) then incubated with Alexa Fluor 647 – conjugated Annexin V (BioLegend) at room temperature for 15 minutes. For A2AAR and A2BAR expression profiling, cells were washed with BD Perm/Wash then incubated with BD CytoFix/CytoPerm at 4°C for 20 minutes. The cells were then washed and stained with PE-conjugated A2AAR mouse antibody (Clone 7F6-G5-A2; Santa Cruz Biotechnology, sc-32261 PE) at room temperature for 30 minutes. After washing twice to remove most A2AAR antibody possible, goat A2BAR primary antibody (Clone PA5-18422; Thermo Fisher Scientific) was incubated at 4°C overnight. The cells were subsequently washed and stained with Alexa Fluor 488-conjugated anti-goat secondary antibody (Thermo Fisher Scientific) at room temperature for 1 hour. The cells were then washed with FC buffer twice before acquiring on NovoCyte. A2AAR and A2BAR fluorescence minus one (FMO) staining were also prepared. For differential expression of ADO ectonucleotidases, day five patient-derived sarcoma spheroids were digested and stained for CD45, CD73 and CD39 using the same procedures as cell surface staining (Supplementary Table 1).
Public database bioinformatic analysis […]

[1] = test system: healthy donor T cells (PBMCs) and NK cells; assay: CFSE proliferation assay with exogenous adenosine; assay type: cell-based, human; details: higher concentration further restoring proliferation, data not shown
human A2AAR = biological target: T1, human A2AAR (Homo sapiens, UniProt P29274); assay: Radioligand binding, human A2AAR ([3H]ZM241385, transfected HeLa cells); details: displacement of [3H]ZM241385, human HeLa cells, n=3, racemic mixtures; read-out: Ki hA2A
T1 construct: expressed in transfected cells; host or cells: HeLa
T1 sequence (P29274 whole entry): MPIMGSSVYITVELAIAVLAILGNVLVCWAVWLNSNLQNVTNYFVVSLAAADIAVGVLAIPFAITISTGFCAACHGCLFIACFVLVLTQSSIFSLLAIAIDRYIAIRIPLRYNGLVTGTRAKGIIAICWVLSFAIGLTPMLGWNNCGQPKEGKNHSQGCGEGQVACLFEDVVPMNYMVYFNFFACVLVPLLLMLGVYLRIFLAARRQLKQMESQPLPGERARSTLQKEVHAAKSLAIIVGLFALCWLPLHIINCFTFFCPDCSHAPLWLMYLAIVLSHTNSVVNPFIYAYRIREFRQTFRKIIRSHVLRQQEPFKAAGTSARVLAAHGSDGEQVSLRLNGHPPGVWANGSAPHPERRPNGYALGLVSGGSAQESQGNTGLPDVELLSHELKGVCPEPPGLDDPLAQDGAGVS
Method: (§1) The affinity and selectivity profiles of the ligands obtained was studied in vitro, radioligand binding assays, at the four human specific ARs subtypes, using experimental protocols previously described.[28–30] All ligands were prepared and tested as racemic mixtures. […] Non-specific binding was determined in the presence of R-PIA 10 µM for A1AR, NECA 50 µM for A2AAR, NECA 400 μΜ for A2BAR and R-PIA 100 μΜ for A3AR.

human A2BAR = biological target: T2, human A2BAR (Homo sapiens, UniProt P29275); assay: Radioligand binding, human A2BAR ([3H]DPCPX, transfected HEK-293 cells); details: displacement of [3H]DPCPX, human HEK-293 cells, n=3, racemic mixtures; read-out: Ki hA2B
T2 construct: expressed in transfected cells; host or cells: HEK-293
T2 sequence (P29275 1-332): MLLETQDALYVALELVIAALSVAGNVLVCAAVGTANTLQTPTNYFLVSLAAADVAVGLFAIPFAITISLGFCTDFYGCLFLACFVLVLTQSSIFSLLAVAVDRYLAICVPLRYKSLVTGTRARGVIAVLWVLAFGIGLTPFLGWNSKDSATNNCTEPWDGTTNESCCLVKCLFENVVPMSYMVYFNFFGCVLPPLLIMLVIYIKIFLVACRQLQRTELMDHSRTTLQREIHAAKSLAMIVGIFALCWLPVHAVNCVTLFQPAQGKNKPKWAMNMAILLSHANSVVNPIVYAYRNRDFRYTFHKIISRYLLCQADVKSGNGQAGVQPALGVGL
Method: as §1

[2] = test system: healthy donor T cells in MPNST patient-derived sarcoma spheroid; assay: Proliferation assay with CD73-expressing patient-derived sarcoma (MPNST) spheroid; assay type: cell-based, human; details: antagonist 12 µM, 3 days, endogenous adenosine, n=5 healthy donors
Method: A malignant peripheral nerve sheath tumor (MPNST) patient-derived sarcoma cell line was used to grow spheroid by seeding 1×10^4 cells per well in a 96-well ultra-low attachment plate (Thermo Fisher Scientific) with DMEM-F12 media containing 20% FBS and 1% PS for 5 days. 1×10^5 CSFE-labeled healthy PBMCs, ratio of 10:1, were added to the CD73 expressing, adenosine-producing spheroid at day five. Similar to the proliferation assay with exogenous ADO, CD3/CD28 beads at 1:4 ratio and IL-2 at 100 IU/mL were added. A2BAR antagonism treatment at 12 μM was added at the same day.
Figure 5 Rescue of lymphocyte proliferation in sarcoma spheroids by A2BAR antagonism. Relative proliferation of: (A) CD45RA- CD4 T cells, (B) CD45RA+CD4 T cells, (C) CD45RA- CD8 T cells and (D) CD45RA+ CD8 T cells after antagonist 12 µM treatment for 3 days in MPNST patient-derived sarcoma spheroid. (n=5 healthy donors) Box plots with minimum, first quartile, median, third quartile, and maximum are presented. Unpaired and non-parametric statistical analysis—Mann-Whitney test was performed against untreated control with *p<0.05, **p<0.01, ***p<0.001, and ****p<0.0001. (E) Representative CSFE dilution of CD45RA+ CD8 T cells. CD45RA expression differentiates naïve and effector T cells from central and effector memory T cells. MPNST, malignant peripheral nerve sheath tumors; UPS, undifferentiated pleomorphic sarcoma.

| Ki (human A2AAR) [nM] | Ki (human A2BAR) [nM] | Structure (SMILES) | Toxicity / cell viability (healthy donor PBMCs) | Dose dependence of the proliferation rescue on T and NK cells [1] | Rescue of naïve and effector (CD45RA+) CD8 T cell proliferation in adenosine-producing sarcoma spheroids [2] |
| --- | --- | --- | --- | --- | --- |
|  |  | CC1=C(C(=O)OC(C)C)C(c2ccco2)n2c(nc3ccccc32)N1 (centres unmarked) [ISAM-140, isopropyl 4-(furan-2-yl)−2-methyl-1,4-dihydrobenzo[4 5] imidazo[1,2 a]pyrimidine-3-carboxylate] | non-toxic and even improved cell viability | dose-dependent |  |
| > 1000 | 1.5 | CC1=C(C(=O)OC(C)C)C(c2ccco2)n2c(nc3ccccc32)N1Cc1ccccc1F (centres unmarked) [ISAM-R56A] |  |  | significantly rescued |
